Measured values published in PubChem BioAssay AID248 (DTP/NCI, 2004).
Toxic doses and inconclusive results are not listed. Cut-off read from the data, not from the text of the source: active = T/C of 150% or more; inactive = T/C below 125%.

Tested on: L1210 leukemia ip in BDF1 mice, survival T/C
Experiment: NCI In Vivo Anticancer Drug Screen. Data for tumor model L1210 Leukemia (intraperitoneal) in B6D2F1 (BDF1) mice
Conditions: endpoint: mean survival time, higher = longer survival
How it was run: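 Transplanted-tumor mice were given test agent; controls received vehicle only. Survival readings from the two groups were divided (treated over control).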

Measured: T/C

CSC(=N)N
inactive: dose: 100.0 mg/kg/injection, schedule: Q01DX001 (ip), vehicle: saline 105 % of control | dose: 100.0 mg/kg/injection, schedule: Q01DX009 (ip), vehicle: saline 99 % of control | dose: 100.0 mg/kg/injection, schedule: Q04DX002 (ip), vehicle: saline 100 % of control | dose: 100.0 mg/kg/injection, schedule: Q04DX003 (ip), vehicle: saline 101 % of control | dose: 200.0 mg/kg/injection, schedule: Q01DX001 (ip), vehicle: saline 96 % of control | dose: 200.0 mg/kg/injection, schedule: Q01DX009 (ip), vehicle: saline 91 % of control | dose: 200.0 mg/kg/injection, schedule: Q04DX002 (ip), vehicle: saline 100 % of control | dose: 200.0 mg/kg/injection, schedule: Q04DX003 (ip), vehicle: saline 97 % of control | dose: 400.0 mg/kg/injection, schedule: Q01DX009 (ip), vehicle: saline 89 % of control | dose: 400.0 mg/kg/injection, schedule: Q04DX003 (ip), vehicle: saline 97 % of control

O=C(c1ccc(F)cc1)c1ccc([N+](=O)[O-])cc1
inactive: dose: 100.0 mg/kg/injection, schedule: Q04DX003 (ip), vehicle: saline with Tween-80 97 % of control | dose: 200.0 mg/kg/injection, schedule: Q04DX003 (ip), vehicle: saline with Tween-80 97 % of control | dose: 400.0 mg/kg/injection, schedule: Q04DX003 (ip), vehicle: saline with Tween-80 98 % of control

CC(C)/C=N/N=C(N)N
inactive: dose: 120.0 mg/kg/injection, schedule: Q01DX Z (oral), vehicle: saline 113 % of control | dose: 240.0 mg/kg/injection, schedule: Q01DX Z (oral), vehicle: saline 104 % of control

Cc1cc(Cl)cc(Cl)c1OCC(N)=O
inactive: dose: 100.0 mg/kg/injection, schedule: Q04DX002 (ip), vehicle: saline with Tween-80 94 % of control | dose: 200.0 mg/kg/injection, schedule: Q04DX002 (ip), vehicle: saline with Tween-80 94 % of control | dose: 400.0 mg/kg/injection, schedule: Q04DX002 (ip), vehicle: saline with Tween-80 94 % of control
